Experimental data taken from PubChem BioAssay AID2384 (Southern Research Specialized Biocontainment Screening …, 2010).
Where “and” joins values, the source holds several entries; their conditions need not be identical. Identical values can stand only once.

Tested on: S. typhi GFP reporter counter-screen, fluorescence, 4 h
Experiment: inhibitors in S. typhi counter-screen strain, dose response, counter-screen for PhoP regulon inhibitor project, fluorescence, 4 h (AID 2384)

**Q.** How did the IC50 turn out when `CCOC(=O)N1CCN(CCC(=O)c2ccc(Cl)cc2)CC1` was run?
**A.** 66.6 µM

**Q.** For `C#CCOCCOCCOCCNc1nc(N2CCN(C(=O)CCCCCCCCCCNC(=O)Cn3cc(CCCCCN)nn3)CC2)nc(N2CCN(C(=O)CCCCCCCCCCNC(=O)[C@@H]([C@H](C)O)n3cc(C)nn3)CC2)n1`, which IC50 is on record?
**A.** 115 µM

**Q.** Which IC50 does the source give for `Fc1ccc([C@@H]2CCNC[C@H]2COc2ccc3c(c2)OCO3)cc1` here?
**A.** 19.2 µM

**Q.** With `CN(C)[C@@H]1C(=O)C(C(N)=O)=C(O)[C@@]2(O)C(=O)C3=C(O)c4c(O)cccc4[C@@](C)(O)C3[C@H](O)C12` (stereo not given in full) as the compound, how does the IC50 read?
**A.** 0.31 µM and 1.78 µM

**Q.** With `Cc1ccc(-n2c(-c3ccc(Br)cc3)c[n+]3c2CCc2ccc4cccnc4c2-3)cc1` as the compound, how does the IC50 read?
**A.** 40.6 µM

**Q.** `COc1cccc(F)c1C(C[N+](=O)[O-])c1c(N)n(C)c(=O)n(C)c1=O` (stereo not given) was tested. Which IC50 did it give?
**A.** 89.2 µM

**Q.** For `Cc1cc(C)n(/N=C/c2cc(Cl)cc(Cl)c2O)c(=O)c1`, which IC50 is on record?
**A.** 101 µM

**Q.** With `COc1ccc(/C=C/c2cc[n+](C(=O)Cc3ccccc3)cc2)cc1` as the compound, how does the IC50 read?
**A.** 65.3 µM

**Q.** With `Oc1ccc(/C=N/Nc2nccnc2Cl)c(O)c1` as the compound, how does the IC50 read?
**A.** 30.5 µM

**Q.** `CCn1nc(C(=O)O)c(=O)c2cc3c(cc21)OCO3` was tested. Which IC50 did it give?
**A.** 84.1 µM

**Q.** For `CCCCc1ccc2[nH]cc(CCN)c2c1`, which IC50 is on record?
**A.** 77 µM

**Q.** How did the IC50 turn out when `O=C(NC(CO)Cc1ccc([N+](=O)[O-])cc1)C(Cl)Cl` (stereo not given) was run?
**A.** 3.82 µM

**Q.** How did the IC50 turn out when `O=C(N[C@H](CO)[C@H](O)c1ccc([N+](=O)[O-])cc1)C(Cl)Cl` was run?
**A.** 1.57 µM

**Q.** `CC(NCc1ccc(Cl)cc1)C(O)c1ccccc1` (stereo not given) was tested. Which IC50 did it give?
**A.** 42.8 µM

**Q.** `COc1cc([N+](=O)[O-])cc(/C=N/NC(=O)c2cccnc2)c1O` was tested. Which IC50 did it give?
**A.** 76.1 µM

**Q.** Which IC50 does the source give for `Cc1cc(C)c2sc(N(CCCN(C)C)C(=O)COc3ccc(Cl)cc3)nc2c1` here?
**A.** 34.8 µM

**Q.** For `Cc1cc(CSC(=N)N)c(CSC(=N)N)cc1C`, which IC50 is on record?
**A.** 50.1 µM

**Q.** How did the IC50 turn out when `CC[C@H](C)[C@@H](CN[C@H](C)CNC)NCCC(c1ccccc1)c1ccccc1` was run?
**A.** 50.2 µM

**Q.** Which IC50 does the source give for `Cc1ccc(NNS(=O)(=O)c2ccc(C)cc2)cc1` here?
**A.** 111 µM

**Q.** With `CN1CCN(Cc2cc(COCc3ccccc3)c3cccnc3c2O)CC1` as the compound, how does the IC50 read?
**A.** 36.8 µM

**Q.** How did the IC50 turn out when `O=C(Cn1nc(CNc2ccc(Cl)cc2)[n+]2c1CCCCC2)c1ccc(Br)cc1` was run?
**A.** 57.2 µM

**Q.** For `O=C(CN1CCCC1)Nc1ccc(-c2nc3cc(NC(=O)CN4CCCC4)ccc3o2)cc1`, which IC50 is on record?
**A.** 57.1 µM

**Q.** With `Cc1ccc(C(=O)NCCN2C3=NC[C@@H](Cc4ccccc4)N3C[C@H]2Cc2ccc(O)cc2)cc1Br` as the compound, how does the IC50 read?
**A.** 35.8 µM

**Q.** How did the IC50 turn out when `O=C(Nc1nc(-c2ccccn2)cs1)c1ccc(Cl)s1` was run?
**A.** 21.3 µM

**Q.** `O=C(CCc1ccccc1)NNC(=S)NC(=O)c1ccccc1` was tested. Which IC50 did it give?
**A.** 63 µM

**Q.** With `Fc1ccc(Nc2nnc(C(F)(F)F)s2)cc1Cl` as the compound, how does the IC50 read?
**A.** 37.8 µM

**Q.** With `O=[N+]([O-])c1cc(Cl)c2cccnc2c1O` as the compound, how does the IC50 read?
**A.** 4.25 µM

**Q.** With `O=C(CCC(=O)Nc1ccc(Cl)cc1Cl)N/N=C/c1ccc([N+](=O)[O-])o1` as the compound, how does the IC50 read?
**A.** 29 µM

**Q.** For `c1ccc(Nc2nc(NCC3CCCO3)c3ccccc3n2)cc1` (stereo not given), which IC50 is on record?
**A.** 26 µM

**Q.** `NC1=NC[C@H](Cc2ccc(O)cc2)N1CCCCC1CCCCC1` was tested. Which IC50 did it give?
**A.** 13.9 µM

**Q.** `NC1=NC[C@H](Cc2ccc(O)cc2)N1CCc1cccc2ccccc12` was tested. Which IC50 did it give?
**A.** 36.5 µM

**Q.** For `Cc1ccc(-c2c[n+](CC(=O)Nc3nc(-c4ccccc4)cs3)c3n2CCC3)cc1`, which IC50 is on record?
**A.** 21.2 µM

**Q.** With `O=C(Nc1c(Cl)ccc2nsnc12)c1ccc([N+](=O)[O-])o1` as the compound, how does the IC50 read?
**A.** 137 µM

**Q.** `CCCCCCCSc1cc(OC)c(CCNC)cc1OC` was tested. Which IC50 did it give?
**A.** 33.2 µM

**Q.** With `C#CCOCCOCCOCCNc1nc(N2CCN(C(=O)CCCCCCCCCCNC(=O)[C@H](CCCCN)n3cc(CCO)nn3)CC2)nc(N2CCN(C(=O)CCCCCCCCCCNC(=O)[C@H](CCCCN)n3cc(C[C@@H](C)CC)nn3)CC2)n1` as the compound, how does the IC50 read?
**A.** 20 µM

**Q.** How did the IC50 turn out when `Oc1ccccc1-c1cc(C(F)(F)C(F)F)[nH]n1` was run?
**A.** 81.2 µM

**Q.** With `O=C(N/N=C/c1cc(Cl)ccc1O)c1cccnc1` as the compound, how does the IC50 read?
**A.** 20.9 µM

**Q.** `CCn1cc(C(=O)O)c(=O)c2cc(F)c(N3CCN(C(=O)Nc4ccccc4)CC3)cc21` was tested. Which IC50 did it give?
**A.** 50.8 µM

**Q.** For `O=C(CSc1nnc(-c2ccccc2)n1-c1ccc(Cl)cc1)NC1CCS(=O)(=O)C1` (stereo not given), which IC50 is on record?
**A.** 44.3 µM

**Q.** Which IC50 does the source give for `CO/N=C(/C(=O)N[C@@H]1C(=O)N2C(C(=O)O)=CCS[C@H]12)c1cnc(N)s1` here?
**A.** 27 µM

**Q.** How did the IC50 turn out when `c1ccc2c(c1)CSc1sccc1C2=C1CCNCC1` was run?
**A.** 80.3 µM

**Q.** With `Oc1ccc(C[C@@H]2CNCCN2CCC23CC4CC(CC(C4)C2)C3)cc1` as the compound, how does the IC50 read?
**A.** 40.6 µM

**Q.** `CCCOc1ccc(C(=O)NNC(=S)NC(C)=O)cc1` was tested. Which IC50 did it give?
**A.** 39.2 µM

**Q.** With `CC1CCN(CCCNC(=O)c2ccc3c(=O)n(Cc4ccc(Cl)cc4)c(=S)[nH]c3c2)CC1` as the compound, how does the IC50 read?
**A.** 47.8 µM

**Q.** For `CS(=O)(=O)c1ccc([C@@H](O)[C@@H](CF)NC(=O)C(Cl)Cl)cc1`, which IC50 is on record?
**A.** 5.15 µM

**Q.** How did the IC50 turn out when `C[C@@H](NC(=O)/C(C#N)=C/c1ccc(O)c(O)c1)c1ccccc1` was run?
**A.** 84.3 µM

**Q.** With `Cc1cc(OCC(O)CNC(C)c2ccccc2)ccc1C(C)C` (stereo not given) as the compound, how does the IC50 read?
**A.** 38.3 µM

**Q.** For `[O-][n+]1c2c(c3c4non(O)c4ccc31)CCCC2`, which IC50 is on record?
**A.** 79.2 µM

**Q.** How did the IC50 turn out when `COC(=O)C1C(O)C(C)C(O)C(C)/C=C\C=C(/C)C(=O)Nc2c(C)c(OC(C)=O)c3c(c2O)C(=O)C(C)=C2OCOC(=C23)/C(C)=C/C(C)(O)C(O)C(C)C1O` (stereo not given) was run?
**A.** 15.2 µM

**Q.** `Cc1ccc(C(C[N+](=O)[O-])c2c(N)n(C)c(=O)n(C)c2=O)cc1` (stereo not given) was tested. Which IC50 did it give?
**A.** 61.3 µM

**Q.** Which IC50 does the source give for `O=C(CN1CC(c2ccccc2)CC1=O)N/N=C/c1cc(Br)ccc1O` (stereo not given) here?
**A.** 40.2 µM

**Q.** Which IC50 does the source give for `CCOC(=O)C1=C(C(C)=O)C(c2cccnc2)C(C#N)=C(N)O1` (stereo not given) here?
**A.** 57.5 µM

**Q.** With `CCCCCOc1ccc(CSC(=N)N)cc1[N+](=O)[O-]` as the compound, how does the IC50 read?
**A.** 30.4 µM

**Q.** With `Cc1ccc(S(=O)(=O)NNc2ccccc2)c(C)c1` as the compound, how does the IC50 read?
**A.** 42.7 µM

**Q.** Which IC50 does the source give for `CNCCCC1Sc2ccccc2Oc2ccccc21` (stereo not given) here?
**A.** 46.4 µM

**Q.** `O=C1CSC(=S)N1c1cccc(O)c1` was tested. Which IC50 did it give?
**A.** 59.9 µM

**Q.** With `N=c1n(CCN2CCCCC2)c2ccccc2n1CC(=O)c1ccc(Cl)c(Cl)c1` as the compound, how does the IC50 read?
**A.** 16.4 µM

**Q.** How did the IC50 turn out when `CC1(C)CC(N2CCN(C(c3ccccc3)c3ccccc3)CC2)=CC(=[N+]2CCCCC2)C1` was run?
**A.** 63.2 µM

**Q.** `CN1CCN(c2nc(Nc3ccc(F)cc3)nc(Nc3ccc(F)cc3)n2)CC1` was tested. Which IC50 did it give?
**A.** 86.7 µM

**Q.** For `COc1cc(CNCCc2ccccc2)cc(Cl)c1OCc1ccccc1`, which IC50 is on record?
**A.** 37.6 µM

**Q.** For `CCOC(=O)c1c(-c2ccc(-c3ccccc3)cc2)csc1NC(=O)CNCCN(C)C`, which IC50 is on record?
**A.** 82.7 µM

**Q.** For `C=CCc1cc(Cl)ccc1OCCCNCCO`, which IC50 is on record?
**A.** 94.2 µM

**Q.** Which IC50 does the source give for `c1ccc2c(c1)OC(CCCN1CCCCC1)c1ccccc1S2` (stereo not given) here?
**A.** 76.4 µM

**Q.** Which IC50 does the source give for `c1ccc2c(c1)CCc1ccccc1C2=C1CCNCC1` here?
**A.** 58.2 µM

**Q.** `CC1(C)N=C(N)NC(Nc2ccc(Br)cc2)=N1` was tested. Which IC50 did it give?
**A.** 109 µM

**Q.** How did the IC50 turn out when `O=C(Nc1ccccc1)Nc1nccs1` was run?
**A.** 96 µM

**Q.** `O=C(O)/C(=C\C(=O)c1ccccc1)Nc1ccccc1` was tested. Which IC50 did it give?
**A.** 103 µM

**Q.** `CCCCCCC[N+](CC)(CC)CCCCc1ccc(Cl)cc1` was tested. Which IC50 did it give?
**A.** 37.3 µM

**Q.** How did the IC50 turn out when `O=C(Nc1nnc(-c2cccs2)o1)c1cccc(F)c1` was run?
**A.** 28.6 µM

**Q.** With `CCn1ncc(/C=N\NC(=O)c2csc3ccccc23)c1C` as the compound, how does the IC50 read?
**A.** 124 µM

**Q.** For `OC(CNCCc1ccc(Cl)cc1Cl)COc1ccccc1` (stereo not given), which IC50 is on record?
**A.** 37.3 µM

**Q.** With `Cc1ccc(C)c(Nc2cc(C)nc3ccccc23)c1` as the compound, how does the IC50 read?
**A.** 54.9 µM

**Q.** `COc1ccc(C(C[N+](=O)[O-])C2(c3ccc(OC)c(OC)c3)C(=O)c3ccccc3C2=O)cc1` (stereo not given) was tested. Which IC50 did it give?
**A.** 18.2 µM

**Q.** `OCCN1CCN(Cc2cc(Cl)c3cccnc3c2O)CC1` was tested. Which IC50 did it give?
**A.** 56.6 µM

**Q.** `O=C(N/N=C/c1ccc([N+](=O)[O-])o1)C(O)c1ccccc1` (stereo not given) was tested. Which IC50 did it give?
**A.** 37.4 µM

**Q.** `CCC(C)NC(=O)c1cn(CC)c2cc(N3CCN(C)CC3)c(F)cc2c1=O` (stereo not given) was tested. Which IC50 did it give?
**A.** 38.2 µM

**Q.** Which IC50 does the source give for `O=[N+]([O-])c1cccc2c(N3CCCC3)ccnc12` here?
**A.** 32.8 µM

**Q.** For `Cc1cc2nc(C3CCN(CC4COc5ccccc5O4)CC3)[nH]c2cc1C` (stereo not given), which IC50 is on record?
**A.** 19.5 µM

**Q.** Which IC50 does the source give for `c1cc2c(cc1C1CCCCC1)c1c3n2CCN=C3CCC1` here?
**A.** 37.9 µM

**Q.** `O=C(NNC(=S)NC(=O)c1ccccc1)c1ccc(O)cc1` was tested. Which IC50 did it give?
**A.** 51 µM
